{"source": "patent US20180338899A1", "about": "“INHIBITORS FOR METHYLATION-RELATED ENZYMES HAT1 AND KAT8” (priority 2015, published 2018)", "key": {"[1]": {"conditions": "interview form of commercially available medicine; cited from earlier work"}, "[2]": {"system": "HLF cells", "assay": "Cell growth suppression of HLF cells on culture plates", "assay_type": "cell-based", "conditions": "360 μg/L, day 3 and day 7", "experimental": "First, HLF cells were cultured on culture plates with RPMI1640 for 7 days. […] In the figures, the “D” denotes days.\nFurthermore, rebamipide was added to HLF cells on a culture pate, and the effect on the cells was examined."}, "[3]": {"target": "T1, KAT8 (Homo sapiens, UniProt Q9H7Z6)", "T1 sequence (Q9H7Z6 1-458)": "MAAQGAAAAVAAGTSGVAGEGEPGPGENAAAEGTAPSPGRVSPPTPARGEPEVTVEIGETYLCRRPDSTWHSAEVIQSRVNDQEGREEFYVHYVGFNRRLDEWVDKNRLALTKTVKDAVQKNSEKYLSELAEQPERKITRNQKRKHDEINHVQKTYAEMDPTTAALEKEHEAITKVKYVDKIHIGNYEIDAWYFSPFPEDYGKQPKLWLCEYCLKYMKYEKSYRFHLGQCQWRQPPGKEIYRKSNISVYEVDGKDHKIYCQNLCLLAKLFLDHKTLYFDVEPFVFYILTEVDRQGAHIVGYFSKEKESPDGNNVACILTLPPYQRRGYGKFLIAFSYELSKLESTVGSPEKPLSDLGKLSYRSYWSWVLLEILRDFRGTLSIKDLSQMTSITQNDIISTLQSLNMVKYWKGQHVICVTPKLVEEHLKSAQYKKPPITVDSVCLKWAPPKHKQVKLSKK", "conditions": "stated as property of the compound, no test described; cited from earlier work"}, "[4]": {"target": "T2, HAT1 (Homo sapiens, UniProt O14929)", "T2 sequence (O14929 1-419)": "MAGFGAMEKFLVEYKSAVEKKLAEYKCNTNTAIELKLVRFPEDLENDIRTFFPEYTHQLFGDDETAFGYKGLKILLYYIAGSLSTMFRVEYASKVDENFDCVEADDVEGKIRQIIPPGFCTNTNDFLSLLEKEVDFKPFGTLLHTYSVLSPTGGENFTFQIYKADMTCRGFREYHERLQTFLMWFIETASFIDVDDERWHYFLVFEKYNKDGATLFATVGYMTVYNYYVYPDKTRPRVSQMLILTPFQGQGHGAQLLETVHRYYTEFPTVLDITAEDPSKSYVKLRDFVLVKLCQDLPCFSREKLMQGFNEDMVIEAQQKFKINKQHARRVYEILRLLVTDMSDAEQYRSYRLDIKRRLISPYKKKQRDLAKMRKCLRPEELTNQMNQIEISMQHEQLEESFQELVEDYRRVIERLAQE", "conditions": "stated as property of the compound, no test described; cited from earlier work"}, "[5]": {"system": "HAT1", "assay": "Inhibitory effect of low-molecular-weight compounds on expression of HAT1 by RT-PCR", "assay_type": "cell-based", "conditions": "FIG. 6"}, "[6]": {"system": "KAT8", "assay": "Inhibitory effect of low-molecular-weight compounds on expression of KAT8 by RT-PCR", "assay_type": "cell-based", "conditions": "FIG. 6"}, "[7]": {"target": "T1, KAT8", "assay": "FDA library screening (analysis service PLEXERA) and binding strength, KAT8", "from_the_text": "(§1) Medicines containing each as an active ingredient (provided that each medicine has an indication other than that for malignant tumors) have already been commercially available.\n(§2) Meanwhile, medicines containing each as an active ingredient (provided that each medicine has an indication other than that for malignant tumors) have already been commercially available."}, "[8]": {"system": "various tumors (cancer and sarcoma types)", "assay": "Drug sensitivity test, anti-tumor effect on various tumors", "assay_type": "cell-based", "conditions": "within an effective blood concentration or even at the minimum effective blood concentration or less; values only in FIG. 13", "from_the_text": "Moreover, how chlorpropamide exerted an anti-tumor effect on various tumors was investigated. Target tumor types, which are classified into cancer (epithelial malignant tumors), include thyroid cancer, malignant brain tumor, malignant melanoma, lung cancer, gastric cancer, liver cancer, pancreatic cancer, colon cancer, cervical cancer, ovarian cancer, bladder cancer, and neuroblastoma. Target tumor types, which are classified into sarcoma (non-epithelial malignant tumors), include fibrosarcoma and osteosarcoma.\nThe concentrations of chlorpropamide were represented in a ratio when the maximum effective blood concentration was set to 1 as described above. […] The results mean that chlorpropamide can be used as an effective and safe anti-malignant tumor agent acting on various tumors."}, "[9]": {"system": "HLF cells", "assay": "Cell death and cell growth suppression rate of HLF cells, 3D cell culture spheroid counter Cell3iMager", "assay_type": "cell-based", "conditions": "within an effective blood concentration or even at the minimum effective blood concentration or less", "experimental": "In addition, chlorpropamide or MG149 was added to HLF cells on culture plates and the cell death and cell growth suppression rate were inspected using a 3D cell culture spheroid counter Cell 3 i Mager (SCREEN, Inc., Kyoto). […] The rows indicate the days of culture and the columns show the kinds and concentrations of the compounds. The concentrations of chlorpropamide were represented in a ratio when the maximum effective blood concentration was set to 1. As the maximum effective blood concentration of chlorpropamide was used 30 µg/ml (which is a value described in the interview form of a commercially available medicine containing chlorpropamide as an active ingredient)."}, "[10]": {"target": "T2, HAT1", "assay": "FDA library screening (analysis service PLEXERA) and binding strength, HAT1", "from_the_text": "as §1, §2"}}}
{"smiles": "O=C(NC(Cc1cc(=O)[nH]c2ccccc12)C(=O)O)c1ccc(Cl)cc1", "note": "(centres unmarked) [Rebamipide, rebamipide]", "values": [{"measurement": "maximum effective blood concentration (Cmax)", "setting": "[1]", "result": 360, "unit": "ng/mL"}, {"measurement": "cell growth suppression effect", "setting": "[2]", "result": "no cell growth suppression effect"}, {"measurement": "inhibition of KAT8", "setting": "[3]", "result": "does not inhibit KAT8"}, {"measurement": "inhibition of HAT1", "setting": "[4]", "result": "inhibits HAT1"}]}
{"smiles": "CCCNC(=O)NS(=O)(=O)c1ccc(Cl)cc1", "note": "[chlorpropamide]", "values": [{"measurement": "maximum effective blood concentration (Cmax)", "setting": "[1]", "result": 30000, "unit": "ng/mL"}, {"measurement": "inhibitory effect on expression of HAT1", "setting": "[5]", "result": "inhibitory effect"}, {"measurement": "inhibitory effect on expression of KAT8", "setting": "[6]", "result": "inhibitory effect"}, {"measurement": "inhibition of function of KAT8", "setting": "[7]", "result": "inhibited function of both HAT1 and KAT8"}, {"measurement": "cell growth suppression effect on various tumors", "setting": "[8]", "result": "elicited a cell growth suppression effect on each tumor"}, {"measurement": "cell growth suppression effect", "setting": "[9]", "result": "elicited a cell growth suppression effect"}, {"measurement": "inhibition of function of HAT1", "setting": "[10]", "result": "inhibited function of both HAT1 and KAT8"}]}
